Measured values: paper PMC7594070, “N-Alkylated Iminosugar Based Ligands: Synthesis and Inhibition of Human Lysosomal β-Glucocerebrosidase” (Molecules, 2020)
Where two headings read alike, the source gives them in different places.

Assays:
[1] = target: T1, β-glucosidase/β-galactosidase from Agrobacterium sp. (Abg, GH1) (Agrobacterium sp., UniProt P12614); experiment: Ki determination, Agrobacterium sp. β-glucosidase (Abg); format: biochemical; conditions: pH 7, substrate pNP β-Gal, room temperature; read-out: Ki Abg (GH1) β-Glc/Gal
T1 sequence (P12614 1-459): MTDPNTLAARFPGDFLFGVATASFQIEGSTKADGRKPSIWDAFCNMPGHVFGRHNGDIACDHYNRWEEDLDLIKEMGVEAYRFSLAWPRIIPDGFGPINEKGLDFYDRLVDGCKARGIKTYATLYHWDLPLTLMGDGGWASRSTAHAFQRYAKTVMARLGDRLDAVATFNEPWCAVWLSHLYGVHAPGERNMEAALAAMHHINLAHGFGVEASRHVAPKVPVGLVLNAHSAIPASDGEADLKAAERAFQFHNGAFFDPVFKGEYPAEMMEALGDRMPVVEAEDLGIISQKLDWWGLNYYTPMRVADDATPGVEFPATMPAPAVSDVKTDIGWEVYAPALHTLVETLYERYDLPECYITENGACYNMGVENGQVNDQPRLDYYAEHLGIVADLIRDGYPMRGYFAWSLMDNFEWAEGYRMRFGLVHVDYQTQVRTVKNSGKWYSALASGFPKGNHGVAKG
Experimental: (§1) Kinetic studies were performed at room temperature in an appropriate buffer for each enzyme (specific conditions can be found below). All the reactions were performed in half-area 96-well-plates (Corning, Corning, NY, USA) and monitored with a Synergy H1 plate reader (BioTek Instruments, Winooski, VT, USA). In each experiment, the appropriate concentration of the enzyme was incubated with different concentrations of the inhibitors for 2–5 min before initiating the reaction by the addition of substrate. The initial rate was then measured by monitoring the increase in absorbance as a result of the release of 4-nitrophenol at 405 nm for up to five minutes. Ki determinations were performed using two different substrate concentrations. For each substrate concentration, a range of three to six inhibitor concentrations was used. Dixon plots (1/v vs. [I]) were constructed to validate the use of competitive inhibition model and to assess the fit of the data. The data were then fit to a competitive inhibition model using non-linear regression analysis with Grafit 7.0.3 (Erithacus Software, East Grinstead, UK).
Agrobacterium sp. β-glucosidase (Abg): [64, 65] 50 mM sodium phosphate buffer (pH 7).

[2] = target: lac Z β-galactosidase from E. coli (GH2) (Escherichia coli, UniProt P00722); experiment: Ki determination, E. coli lac Z β-galactosidase; format: biochemical; conditions: pH 7, substrate pNP β-Gal, room temperature
Experimental: as §1
E. coli lac z β-galactosidase: 50 mM sodium phosphate, 1.0 mM MgCl2 (pH 7). Substrate: pNP β-Gal, Km = 60 µM.

[3] = target: T2, Fabrazyme = commercial recombinant human lysosomal α-galactosidase (GH27) (Homo sapiens, UniProt P06280); experiment: Ki determination, Fabrazyme (acid α-galactosidase); format: biochemical; conditions: pH 5.5, substrate 2,4-DNP α-Gal, room temperature
T2 construct: purchased Fabrazyme
T2 sequence (P06280 32-429): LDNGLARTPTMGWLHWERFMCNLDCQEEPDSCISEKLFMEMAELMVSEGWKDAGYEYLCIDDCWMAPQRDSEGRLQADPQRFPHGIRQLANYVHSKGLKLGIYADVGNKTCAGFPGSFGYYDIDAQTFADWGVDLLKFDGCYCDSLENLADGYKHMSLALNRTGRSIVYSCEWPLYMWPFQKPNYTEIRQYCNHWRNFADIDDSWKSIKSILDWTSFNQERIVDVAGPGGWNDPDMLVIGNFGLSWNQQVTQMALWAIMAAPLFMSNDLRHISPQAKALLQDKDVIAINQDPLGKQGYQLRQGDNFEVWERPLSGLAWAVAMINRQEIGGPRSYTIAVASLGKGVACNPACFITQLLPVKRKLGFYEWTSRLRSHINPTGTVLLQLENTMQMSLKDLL
Experimental: as §1, with “The initial rate was then measured by monitoring the increase in absorbance as a result of the release of 4-nitrophenol at 405 nm for up to five minutes.” left out
Fabrazyme (Acid α-galactosidase): 20 mM sodium citrate, 50 mM sodium phosphate, 1.0 mM tetrasodium EDTA, 0.25% v/v Triton X-100® and 0.25% w/v taurocholic acid buffer (pH 5.5).

[4] = target: α-glucosidase from Saccharomyces cerevisiae (GH13); experiment: Ki determination, S. cerevisiae α-glucosidase; format: biochemical; conditions: pH 7.0, substrate pNP α-Glc, room temperature; read-out: Ki S. cer. (GH13) α-Glc
Experimental: as §1
S. cerevisiae α-Glucosidase: 50 mM sodium phosphate buffer (pH 7.0). Substrate: pNP α-Glc, Km = 0.75 mM.

[5] = target: T3, recombinant human lysosomal β-glucocerebrosidase (GCase, GH30) (Homo sapiens, UniProt P04062); experiment: Ki determination, GCase (β-glucocerebrosidase); format: biochemical
T3 sequence (P04062 40-536): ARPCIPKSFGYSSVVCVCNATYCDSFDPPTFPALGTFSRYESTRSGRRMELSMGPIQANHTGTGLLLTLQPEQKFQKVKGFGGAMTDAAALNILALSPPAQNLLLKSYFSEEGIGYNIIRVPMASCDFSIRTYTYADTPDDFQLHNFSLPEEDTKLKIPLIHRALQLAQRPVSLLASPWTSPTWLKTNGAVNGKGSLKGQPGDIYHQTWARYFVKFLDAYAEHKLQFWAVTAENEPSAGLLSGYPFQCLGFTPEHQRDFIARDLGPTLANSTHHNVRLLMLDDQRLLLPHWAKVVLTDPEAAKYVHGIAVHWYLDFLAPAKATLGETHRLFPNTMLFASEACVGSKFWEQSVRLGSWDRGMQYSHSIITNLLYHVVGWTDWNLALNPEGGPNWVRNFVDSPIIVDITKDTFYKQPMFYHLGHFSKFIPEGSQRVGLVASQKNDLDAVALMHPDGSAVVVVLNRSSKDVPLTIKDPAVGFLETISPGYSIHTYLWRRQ
Experimental: as §1
GCase (β-glucocerebrosidase): 20 mM sodium citrate, 50 mM sodium phosphate, 1.0 mM tetrasodium EDTA, 0.25% v/v Triton X-100® and 0.25% w/v taurocholic acid buffer (pH 7). Substrate: 2,4-DNP β-Glc, Km = 2.7 mM.

[6] = target: GCase; conditions: cited from earlier work
[7] = pH 7, substrate 2,4-DNP β-Glc, room temperature, read-out: Ki GCase (GH30) β-Glc
[8] = values repeated in running text, read-out: Ki for GCase

Sequence of lac Z β-galactosidase from E. coli (GH2) (P00722 2-1024 limits assumed): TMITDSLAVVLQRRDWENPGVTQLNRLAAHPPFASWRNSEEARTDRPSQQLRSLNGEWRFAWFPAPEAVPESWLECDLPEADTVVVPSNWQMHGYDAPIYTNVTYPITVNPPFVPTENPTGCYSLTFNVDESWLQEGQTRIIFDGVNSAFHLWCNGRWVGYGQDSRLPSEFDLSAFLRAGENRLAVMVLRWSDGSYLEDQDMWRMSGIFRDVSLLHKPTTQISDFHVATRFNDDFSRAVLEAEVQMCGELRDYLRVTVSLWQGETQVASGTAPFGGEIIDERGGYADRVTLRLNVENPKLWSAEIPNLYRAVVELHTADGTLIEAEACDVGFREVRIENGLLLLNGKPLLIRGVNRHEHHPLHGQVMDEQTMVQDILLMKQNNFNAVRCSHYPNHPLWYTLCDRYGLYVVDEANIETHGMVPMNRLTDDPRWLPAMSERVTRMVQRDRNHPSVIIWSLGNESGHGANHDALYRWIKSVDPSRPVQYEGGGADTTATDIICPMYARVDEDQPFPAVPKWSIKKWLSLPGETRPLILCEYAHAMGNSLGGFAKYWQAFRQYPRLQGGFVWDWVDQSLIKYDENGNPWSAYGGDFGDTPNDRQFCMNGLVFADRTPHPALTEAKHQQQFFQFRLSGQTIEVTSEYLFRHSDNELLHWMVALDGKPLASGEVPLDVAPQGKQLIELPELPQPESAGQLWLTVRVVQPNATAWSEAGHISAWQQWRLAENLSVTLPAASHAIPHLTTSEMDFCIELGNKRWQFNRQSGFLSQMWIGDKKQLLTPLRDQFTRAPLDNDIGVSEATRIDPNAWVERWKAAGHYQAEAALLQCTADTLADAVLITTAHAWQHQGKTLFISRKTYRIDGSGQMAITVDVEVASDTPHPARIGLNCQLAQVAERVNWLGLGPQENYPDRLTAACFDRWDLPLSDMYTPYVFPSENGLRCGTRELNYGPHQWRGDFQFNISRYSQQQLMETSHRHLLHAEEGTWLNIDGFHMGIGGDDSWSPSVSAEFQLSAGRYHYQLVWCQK

SMILES: O=C(OCCCCCCN1C[C@H](O)[C@@H](O)[C@H](O)[C@H]1CO)c1ccc(OCCOCCOC(C(F)(F)F)(C(F)(F)F)C(F)(F)F)cc1 [Compound 49, N-(6-((4-(2-(2-(Nonafluoro-tert-butyloxy)ethoxy)ethoxy)benzoyl)oxy)hexyl)-1,5-dideoxy-1,5-imino-D-glucitol]
- Ki [1]: 3.6 µM
- Ki [2]: > 1000 µM
- Ki [3]: > 1000 µM
- Ki [4]: > 1000 µM
- Ki [5, 7]: 0.35 µM

SMILES: N#CCCCCCOc1ccc(C(=O)OCCCCCCN2C[C@@H](O)[C@H](O)[C@@H](O)C2)cc1 [Compound 46, N-(6-((4-((5-Cyanopentyl)oxy)benzoyl)oxy)hexyl)-1,5-dideoxy-1,5-imino-D-xylitol]
- Ki [1]: 12.1 µM
- Ki [2]: > 1000 µM
- Ki [3]: > 1000 µM
- Ki [4]: > 1000 µM
- Ki [5, 7]: 0.62 µM

SMILES: N#CCCCCCOc1ccc(C(=O)OCCCCCCN2C[C@H](O)[C@@H](O)[C@H](O)[C@H]2CO)cc1 [Compound 45, N-(6-((4-((5-Cyanopentyl)oxy)benzoyl)oxy)hexyl)-1,5-dideoxy-1,5-imino-D-glucitol]
- Ki [1]: 1.31 µM
- Ki [2]: > 1000 µM
- Ki [3]: > 1000 µM
- Ki [4]: 23.7 µM
- Ki [5, 7]: 0.28 µM

SMILES: [N-]=[N+]=NCCOCCOc1ccc(C(=O)OCCCCCCN2C[C@H](O)[C@@H](O)[C@H](O)[C@H]2CO)cc1 [Compound 47, N-(6-((4-(2-(2-Azidoethoxy)ethoxy)benzoyl)oxy)hexyl)-1,5-dideoxy-1,5-imino-D-glucitol]
- Ki [1]: 1.7 µM
- Ki [2]: > 1000 µM
- Ki [3]: > 1000 µM
- Ki [4]: 221 µM
- Ki [5, 7]: 0.09 µM

SMILES: O=C(NCCc1ccc(C(=O)OCCCCCCN2C[C@@H](O)[C@H](O)[C@@H](O)C2)cc1)OCc1ccccc1 [Compound 54, N-(6-((4-(2-(((Benzyloxy)carbonyl)amino)ethyl)benzoyl)oxy)hexyl)-1,5-dideoxy-1,5-imino-D-xylitol]
- Ki [1]: 0.58 µM
- Ki [2]: > 1000 µM
- Ki [3]: > 1000 µM
- Ki [4]: > 1000 µM
- Ki [5, 7]: 0.31 µM

SMILES: CN(C)c1cccc2c(S(=O)(=O)NCCc3ccc(C(=O)OCCCCCCN4C[C@@H](O)[C@H](O)[C@@H](O)C4)cc3)cccc12 [Compound 56, N-(6-((4-(2-(Dansylamino)ethyl)benzoyl)oxy)hexyl)-1,5-dideoxy-1,5-imino-D-xylitol]
- Ki [1]: 0.76 µM
- Ki [2]: 198 µM
- Ki [3]: > 1000 µM
- Ki [4]: > 1000 µM

SMILES: CC[C@@H]1[C@H](O)[C@@H](O)[C@H](O)CN1CCCCCC(=O)OC [Compound 19]
- Ki ([6]; read-out: Ki GCase): 57 µM

SMILES: O=C(NCCc1ccc(C(=O)OCCCCCCN2C[C@H](O)[C@@H](O)[C@H](O)[C@H]2CO)cc1)OCc1ccccc1 [Compound 53, N-(6-((4-(2-(((Benzyloxy)carbonyl)amino)ethyl)benzoyl)oxy)hexyl)-1,5-dideoxy-1,5-imino-D-glucitol]
- Ki [1]: 0.06 µM
- Ki [2]: 424 µM
- Ki [3]: > 1000 µM
- Ki [4]: 8.1 µM
- Ki [5, 8]: 0.022 µM

SMILES: O=C(OCCCCCCN1C[C@@H](O)[C@H](O)[C@@H](O)C1)c1ccc(OCCOCCOC(C(F)(F)F)(C(F)(F)F)C(F)(F)F)cc1 [Compound 50, N-(6-((4-(2-(2-(Nonafluoro-tert-butyloxy)ethoxy)ethoxy)benzoyl)oxy)hexyl)-1,5-dideoxy-1,5-imino-D-xylitol]
- Ki [1]: 23.7 µM
- Ki [2]: 255 µM
- Ki [3]: > 1000 µM
- Ki [4]: > 1000 µM
- Ki [5, 7]: 0.4 µM

SMILES: CN(C)c1cccc2c(S(=O)(=O)NCCc3ccc(C(=O)OCCCCCCN4C[C@H](O)[C@@H](O)[C@H](O)[C@H]4CO)cc3)cccc12 [Compound 55, N-(6-((4-(2-(Dansylamino)ethyl)benzoyl)oxy)hexyl)-1,5-dideoxy-1,5-imino-D-glucitol]
- Ki [1]: 0.06 µM
- Ki [2]: 89 µM
- Ki [3]: > 1000 µM
- Ki [4]: 8.7 µM
- Ki [5, 8]: 0.018 µM

SMILES: C#CCOc1ccc(C(=O)OCCCCCCN2C[C@@H](O)[C@H](O)[C@@H](O)C2)cc1 [Compound 52, N-(6-((4-(Propargyloxy)benzoyl)oxy)hexyl)-1,5-dideoxy-1,5-imino-D-xylitol]
- Ki [2]: > 1000 µM
- Ki [3]: > 1000 µM
- Ki [4]: 267 µM
- Ki [5, 7]: 0.74 µM

SMILES: C#CCOc1ccc(C(=O)OCCCCCCN2C[C@H](O)[C@@H](O)[C@H](O)[C@H]2CO)cc1 [Compound 51, N-(6-((4-(Propargyloxy)benzoyl)oxy)hexyl)-1,5-dideoxy-1,5-imino-D-glucitol]
- Ki [1]: 0.0022 µM
- Ki [2]: > 1000 µM
- Ki [3]: > 1000 µM
- Ki [4]: 4.9 µM
- Ki [5, 7]: 0.37 µM

SMILES: CC[C@@H]1[C@H](O)[C@@H](O)[C@H](O)CN1CCCCCC(=O)NCCc1c[nH]cn1 [Compound 20]
- Ki ([6]; read-out: Ki GCase): 4.1 µM

SMILES: [N-]=[N+]=NCCOCCOc1ccc(C(=O)OCCCCCCN2C[C@@H](O)[C@H](O)[C@@H](O)C2)cc1 [Compound 48, N-(6-((4-(2-(2-Azidoethoxy)ethoxy)benzoyl)oxy)hexyl)-1,5-dideoxy-1,5-imino-D-xylitol]
- Ki [1]: 32.6 µM
- Ki [2]: > 1000 µM
- Ki [3]: > 1000 µM
- Ki [4]: > 1000 µM
- Ki [5, 7]: 1.4 µM

SMILES: OC[C@@H]1[C@@H](O)[C@H](O)[C@@H](O)CN1CCCCCCCCCn1cc(COCC(COCc2cn(CCCCCCCCCN3C[C@H](O)[C@@H](O)[C@H](O)[C@H]3CO)nn2)(COCc2cn(CCCCCCCCCN3C[C@H](O)[C@@H](O)[C@H](O)[C@H]3CO)nn2)COCc2cn(CCCCCCCCCN3C[C@H](O)[C@@H](O)[C@H](O)[C@H]3CO)nn2)nn1 [Compound 17]
- Ki ([6]; read-out: Ki GCase inhibition, multivalent iminosugars): 0.055 µM
